This note sets out measurements from ChEMBL document CHEMBL1629541, “Synthesis and structure-activity relationships of aza- and diazabiphenyl analogues of the antitubercular drug (6S)-2-nitro-6-{[4-(trifluoromethoxy)benzyl]oxy}-6,7-dihydro-5H-imidazo[2,1-b][1,3]oxazine (PA-824)” (J Med Chem, 2010).

Data set [1] is described as follows: Thermodynamic solubility in aqueous buffer at pH 1 at 20 degC by HPLC. The data set is classed as physicochemical.
Data set [2] in a line: Thermodynamic solubility in aqueous buffer at pH 7.4 at 20 degC by HPLC. The data set is classed as physicochemical.
The nature of data set [3]: AUClast in Sprague-Dawley rat at 20 mg/kg, po administered as single dose. Conditions: plasma. On the set-up: time 0 - last, dose 20 mg/kg, route oral. The class given is ADME, organism-based.
A short description of data set [4]: AUClast in Sprague-Dawley rat at 1 mg/kg, iv administered as single dose. The class given is ADME, organism-based. Details: time 0 - last, dose 1 mg/kg, route intravenous. Conditions: plasma.
A short description of data set [5]: Half life in CD1 mouse plasma at 40 mg/kg, po administered as single dose. The class given is ADME, organism-based. Details: dose 40 mg/kg, route oral.
Data set [6] in a line: Cmax in CD1 mouse plasma at 40 mg/kg, po administered as single dose. The data set is classed as ADME, organism-based. Details: dose 40 mg/kg, route oral.
A short description of data set [7]: physchem. The settings on record: water, pH 7.
Description: Solubility of the compound in water at pH 7.0 by HPLC
Data set [8] in a line: physchem. Conditions: water, pH 1.
Description: Solubility of the compound in water at pH 1.0 by HPLC
Data set [9] in a line: Cmax in Sprague-Dawley rat at 20 mg/kg, po administered as single dose. The class given is ADME, organism-based. On the set-up: dose 20 mg/kg, route oral. The settings on record: in vivo.
Data set [10] can be described thus: in vitro. Conditions: CD1, mouse, liver microsomes. On the technique in general: Liver microsomes are vesicles of endoplasmic reticulum, rich in cytochrome P450 enzymes.
Description: Metabolic stability in CD1 mouse liver microsomes assessed as compound remaining after 1 hr
Data set [11] in a line: Half life in Sprague-Dawley rat at 1 mg/kg, iv administered as single dose. Conditions: in vivo. The data set is classed as ADME, organism-based. On the set-up: dose 1 mg/kg, route intravenous.
The nature of data set [12]: Oral bioavailability in Sprague-Dawley rat at 20 mg/kg, po administered as single dose. The class given is ADME, organism-based. The settings on record: in vivo.
The nature of data set [13]: in vitro. Conditions: human, liver microsomes.
Description: Metabolic stability in human liver microsomes assessed as compound remaining after 1 hr
Data set [14] concerns Mycobacterium tuberculosis. The experiment in a line: microbe, parasite or virus in culture. The settings on record: H37Rv.
Description: Antitubercular activity against Mycobacterium tuberculosis H37Rv by LORA method
Data set [15] in a line: AUC (0-infinity) in CD1 mouse lung at 40 mg/kg, po administered as single dose. The class given is ADME, organism-based. On the set-up: time infinity, dose 40 mg/kg, route oral.
A short description of data set [16]: Half life in CD1 mouse lung at 40 mg/kg, po administered as single dose. The class given is ADME, organism-based. Details: dose 40 mg/kg, route oral.
The nature of data set [17]: Cmax in CD1 mouse lung at 40 mg/kg, po administered as single dose. The data set is classed as ADME, organism-based. Details: dose 40 mg/kg, route oral.
A short description of data set [18]: Ratio of AUC (0-infinity) in lung to AUC (0-infinity) in plasma of CD1 mouse at 40 mg/kg, po administered as single dose. Details: dose 40 mg/kg, route oral. The data set is classed as ADME, organism-based.
Data set [19] in a line: Tmax in Sprague-Dawley rat at 1 mg/kg, iv administered as single dose. The class given is ADME, organism-based. On the set-up: dose 1 mg/kg, route intravenous. The settings on record: in vivo.
Data set [20] can be described thus: Cmax in Sprague-Dawley rat at 1 mg/kg, iv administered as single dose. The settings on record: in vivo. The class given is ADME, organism-based. Details: dose 1 mg/kg, route intravenous.
Data set [21] in a line: Tmax in Sprague-Dawley rat at 20 mg/kg, po administered as single dose. The class given is ADME, organism-based. Details: dose 20 mg/kg, route oral. The settings on record: in vivo.
Data set [22] deals with Mycobacterium tuberculosis. Description: microbe, parasite or virus in culture. Conditions: H37Rv. The source holds these as a separate data set.
A short description of data set [23]: AUC (0-infinity) in CD1 mouse plasma at 40 mg/kg, po administered as single dose. The class given is ADME, organism-based. On the set-up: time infinity, dose 40 mg/kg, route oral.
A short description of data set [24]: AUClast in Sprague-Dawley rat at 5 mg/kg, iv administered as single dose. The data set is classed as ADME, organism-based. On the set-up: time 0 - last, dose 5 mg/kg, route intravenous. The settings on record: plasma.
Data set [25] is described as follows: Half life in Sprague-Dawley rat at 5 mg/kg, iv administered as single dose. The data set is classed as ADME, organism-based. Conditions: in vivo. On the set-up: dose 5 mg/kg, route intravenous.
Data set [26] is described as follows: Cmax in Sprague-Dawley rat at 5 mg/kg, iv administered as single dose. The data set is classed as ADME, organism-based. On the set-up: dose 5 mg/kg, route intravenous. The settings on record: in vivo.
Data set [27] in a line: Tmax in Sprague-Dawley rat at 5 mg/kg, iv administered as single dose. The data set is classed as ADME, organism-based. On the set-up: dose 5 mg/kg, route intravenous. The settings on record: in vivo.
Data set [28] can be described thus: Metabolic stability in human liver microsomes after 1 hr at 37 degC. The class given is ADME, Microsome. Conditions: read-out: Stability.

Structures are written as SMILES. Converted amounts (≈) assume the structure as drawn. Bounds are passed on as bounds.

Regarding `O=[N+]([O-])c1cn2c(n1)OC[C@@H](OCc1ccc(-c3ccc(OC(F)(F)F)c(F)c3)nc1)C2`, the results for the solubility (thermodynamic) in data set [1] (aqueous buffer) and in data set [2] were 34 µg/mL (≈ 74.8 µM) and 0.32 µg/mL (≈ 0.704 µM), respectively. The AUC(0-t) was 129 µg·h/mL in [3] and 6.97 µg·h/mL in data set [4]. For the same molecule, the half-life in data set [5] is 14 h; in [11] it was 33 h; in [16], 12 h. Further, the Cmax in data set [6] turned out to be 7000 ng/mL; in data set [9], 7200 ng/mL; in data set [17] it was 12000 ng/mL; in [20], 530 ng/mL. Also, the solubility stood at 3 µg/mL (≈ 6.6 µM) in [7] and 71 µg/mL (≈ 156 µM) in data set [8]. Moreover, the results for the remaining at 1 h in data set [10] and in data set [13] were 90% and 100%, respectively. This molecule yielded a bioavailability in data set [12] of 93%. For the same molecule, the values for the MIC in data set [14] and in data set [22] were 0.93 µM (≈ 0.423 µg/mL) and 0.025 µM (≈ 0.0114 µg/mL), respectively. Besides, the AUC(0-inf) in data set [15] amounted to 251 µg·h/mL; in [23] it was 175 µg·h/mL. For the same molecule, in data set [18], the Kp was 1.4. The Tmax was determined as 4.98 min in data set [19] and 6 h in [21].
Consider `O=[N+]([O-])c1cn2c(n1)OC[C@@H](OCc1ccc(-c3ccc(OC(F)(F)F)cc3)nc1)C2` [TBA-354], for which the AUC(0-t) in data set [24] came to 12.1 µg·h/mL; in data set [3], 30.1 µg·h/mL. The same molecule showed a solubility in [1] (buffer) of 45 µg/mL (≈ 103 µM). In addition, the thermodynamic solubility in data set [2] is under 0.1 µg/mL. Moreover, the half-life in data set [5] is 24 h; in [25], over 6 h; in [16], 2.2 h. The Cmax in data set [6] amounted to 12000 ng/mL; in data set [9], 8100 ng/mL; in data set [17] it was 18000 ng/mL; in data set [26] it was 3900 ng/mL. In addition, the remaining at 1 h in data set [10] was determined as 87%; in data set [13], 83%. The bioavailability in [12] was found to be 62%. Also, the MIC was determined as 0.54 µM (≈ 0.236 µg/mL) in data set [14] and 0.05 µM (≈ 0.0218 µg/mL) in data set [22]. In addition, the AUC(0-inf) is 81 µg·h/mL in data set [15] and 296 µg·h/mL in data set [23]. For the same molecule, the Tmax stood at 4.98 min in data set [27] and 5 h in data set [21].
For the molecule `COc1ccc(-c2ccc(CO[C@@H]3COc4nc([N+](=O)[O-])cn4C3)cc2)cn1`, in data set [7], the concentration in solution (solubility) was 4.4 µg/mL (≈ 11.5 µM). Further, the results for the remaining at 1 h in data set [10], in [28] and in [13] were 6%, over 50% and 40%, respectively. Further, the MIC turned out to be 0.61 µM (≈ 0.233 µg/mL) in data set [14] and 0.045 µM (≈ 0.0172 µg/mL) in [22].

Broadly, the thermodynamic solubility is the concentration in solution at equilibrium with solid. Usually AUC(0-t) stands for the area under the concentration-time curve up to a stated or last time point. Higher therefore signals more exposure. In general, half-life refers to the time in which the quantity being followed falls by half. Low readings indicate rapid decline, high ones slow decline. The Cmax is the maximum level reached in the sampled fluid or tissue. What is called solubility is how much of the substance goes into solution per volume. By bioavailability is commonly meant dose-corrected exposure relative to a reference, in per cent. Low values mean poor availability, high ones good availability. Usually AUC(0-inf) stands for the area under the concentration-time curve extrapolated to infinity. Broadly, the Kp is tissue or fluid exposure divided by exposure in the circulation. For orientation: Tmax means the time at which the peak concentration occurs.
